From patent US12454521B2, “Targeted protein degradation” (C4 Therapeutics, Inc., priority 2018, dated 2025)
Structures can show the parent of a compound that is named as a salt.

What follows are molecules tested against CRBN-DDB1 (Homo sapiens, UniProt Q96SW2) (assay: CRBN-DDB1 fluorescence polarization (FP) binding assay). Conditions: displacement of Thalidomide-Alexa Fluor or Pomalidomide-fluorescein probe; 400 nM CRBN-DDB1, 5 nM probe, 0.05% pluronic acid, 60 min room temperature; read-out: FP binding to CRBN_DDB1.3 0.05% PA.
Procedure: The measurement of the ability of representative Degrons to bind to CRBN-DDB1 was carried out using an established sensitive and quantitative in vitro fluorescence polarization (FP) based binding assay. (See, I. J. Enyedy et al, J. Med. Chem., 44: […] [2001]). Degrons were dispensed from serially diluted DMSO stock into black 384-well compatible fluorescence polarization plates using an Echo acoustic dispenser. Binding to CRBN-DDB1 was measured by displacement of either a (-)-Thalidomide- Alexa Fluor® or Pomalidomide-fluorescein conjugated probe dye. A 20 μL mixture containing 400 nM CRBN-DDB1 and 5 nM probe dye in 50 mM Hepes, pH 7.4, 200mM NaCl, 1% DMSO and 0.05% pluronic acid-127 acid was added to wells containing Degron and incubated at room temperature for 60 min. Matching control wells excluding CRBN-DDB1 were used to correct for background fluorescence. Plates were read on an Envision plate reader with appropriate FP filter sets. The corrected S (perpendicular) and P (parallel) values were used to calculate fluorescence polarization (FP) with the following equation: FP =1000*(S-G*P)/(S+G*P). The fractional amount of bound probe (FB) to CRBN-DDB1 as a function of Degron concentration was fitted according to Wang; FEBS Letters 360, (1995), 111-114 to obtain fits for parameter offsets and binding constant (KA) of Degron.

Sequence of CRBN-DDB1 (Q96SW2 whole entry): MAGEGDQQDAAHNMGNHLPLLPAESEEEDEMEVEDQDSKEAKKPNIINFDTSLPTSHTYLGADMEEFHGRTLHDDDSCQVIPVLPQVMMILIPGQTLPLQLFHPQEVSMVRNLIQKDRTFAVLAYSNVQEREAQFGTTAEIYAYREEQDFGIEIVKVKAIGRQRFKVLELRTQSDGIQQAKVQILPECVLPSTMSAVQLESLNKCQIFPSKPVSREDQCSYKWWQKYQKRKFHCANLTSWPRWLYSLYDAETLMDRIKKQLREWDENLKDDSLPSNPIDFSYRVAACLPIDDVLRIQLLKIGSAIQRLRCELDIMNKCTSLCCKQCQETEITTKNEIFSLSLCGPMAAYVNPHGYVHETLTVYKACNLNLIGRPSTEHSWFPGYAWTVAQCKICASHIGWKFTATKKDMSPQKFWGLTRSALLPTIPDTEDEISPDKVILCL
Sequence of CRBN-DDB1 (Q16531 whole entry partner): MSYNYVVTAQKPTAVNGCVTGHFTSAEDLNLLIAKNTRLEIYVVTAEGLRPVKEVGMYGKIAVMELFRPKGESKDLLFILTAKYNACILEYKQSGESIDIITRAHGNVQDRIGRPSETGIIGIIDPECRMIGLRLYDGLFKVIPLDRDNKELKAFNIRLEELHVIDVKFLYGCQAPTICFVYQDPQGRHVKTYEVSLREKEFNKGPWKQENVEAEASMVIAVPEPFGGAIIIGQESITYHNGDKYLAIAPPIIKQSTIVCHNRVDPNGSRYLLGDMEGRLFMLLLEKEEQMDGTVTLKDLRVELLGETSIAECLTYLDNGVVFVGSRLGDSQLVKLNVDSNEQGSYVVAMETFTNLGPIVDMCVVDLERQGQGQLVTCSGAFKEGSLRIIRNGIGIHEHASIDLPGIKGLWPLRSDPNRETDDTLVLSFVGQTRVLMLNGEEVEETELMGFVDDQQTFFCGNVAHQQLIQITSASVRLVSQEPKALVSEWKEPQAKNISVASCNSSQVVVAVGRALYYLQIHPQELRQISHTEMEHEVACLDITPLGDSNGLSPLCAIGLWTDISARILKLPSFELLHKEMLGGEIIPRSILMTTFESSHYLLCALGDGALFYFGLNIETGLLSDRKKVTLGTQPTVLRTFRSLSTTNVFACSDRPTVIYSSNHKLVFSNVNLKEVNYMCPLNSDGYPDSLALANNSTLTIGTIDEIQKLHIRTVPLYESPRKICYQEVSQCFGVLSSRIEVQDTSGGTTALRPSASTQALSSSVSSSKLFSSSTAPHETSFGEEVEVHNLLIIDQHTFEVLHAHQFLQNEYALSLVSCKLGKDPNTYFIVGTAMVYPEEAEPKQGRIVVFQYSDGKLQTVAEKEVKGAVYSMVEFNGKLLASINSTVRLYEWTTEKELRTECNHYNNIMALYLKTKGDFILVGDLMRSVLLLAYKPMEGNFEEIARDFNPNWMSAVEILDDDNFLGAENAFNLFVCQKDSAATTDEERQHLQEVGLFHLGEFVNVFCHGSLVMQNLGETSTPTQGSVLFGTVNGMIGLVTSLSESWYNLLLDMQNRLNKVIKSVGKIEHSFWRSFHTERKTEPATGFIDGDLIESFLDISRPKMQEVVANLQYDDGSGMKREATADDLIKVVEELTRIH

Compound | Kd [µM]
O=C1CCN(c2ccc(N3CCNCC3)nc2)C(=O)N1 [Compound 1, 1-(6-(Piperazin-1-yl)pyridin-3-yl)dihydropyrimidine-2,4(1H,3H)-dione Hydrochloride] | < 30
Cn1nc(N2CCC(=O)NC2=O)c2ccc(Br)cc21 [Compound 2, 1-(6-Bromo-1-methyl-1H-indazol-3-yl)dihydropyrimidine-2,4(1H,3H)-dione] | < 50
O=C1CCN(c2ccc(C3CCNCC3)c(=O)[nH]2)C(=O)N1 [Compound 5, 1-(6-Oxo-5-(piperidin-4-yl)-1,6-dihydropyridin-2-yl)dihydropyrimidine-2,4(1H,3H)-dione Hydrochloride] | < 100
O=C(O)CCc1ccc(N2CCC(N3CCC(=O)NC3=O)CC2)cc1 [Compound 6, 3-[4-[4-(2,4-dioxohexahydropyrimidin-1-yl)-1-piperidyl]phenyl]propanoic acid] | < 50
O=C1CCN(c2ccc(C3CCNCC3)[nH]c2=O)C(=O)N1 [Compound 7, 1-(2-Oxo-6-(piperidin-4-yl)-1,2-dihydropyridin-3-yl)dihydropyrimidine-2,4(1H,3H)-dione] | < 30
O=C1CCN(c2cnn(C3CCNCC3)c2)C(=O)N1 [Compound 8, 1-[1-(4-piperidyl)pyrazol-4-yl]hexahydropyrimidine-2,4-dione] | < 100
O=C1CCN(c2ccc(N3CCNCC3)cc2)C(=O)N1 [Compound 10, 1-(4-Piperazin-1-yl-phenyl)-dihydro-pyrimidine-2,4-dione hydrochloride] | < 100
O=C1CCN(c2ccc(C3CCNCC3)cc2)C(=O)N1 [Compound 11, 1-[4-(4-piperidyl)phenyl]hexahydropyrimidine-2,4-dione; hydrochloride] | < 100
O=C1CCN(c2cccc(C3CCNCC3)c2)C(=O)N1 [Compound 12, 1-(3-Piperidin-4-yl-phenyl)-dihydro-pyrimidine-2,4-dione hydrochloride] | < 100
O=C1CCN(Cc2ccc(C3CCNCC3)cc2)C(=O)N1 [Compound 14, 1-(4-(Piperidin-4-yl)benzyl)dihydropyrimidine-2,4(1H,311)-dione TFA] | < 30
